Tested on: synthesis of triglycerides (enzyme from pig adipose tissue)
Assay: Inhibition of triglyceride synthesis by enzyme preparation (homogenate supernatant) from pig adipose tissue, 14C-glycerol-3-phosphate incorporation
Format: biochemical
Details: test compound 1000 micrograms per milliliter, 5% DMSO, incubated eight minutes at 37° C; compared to controls; average of two animals, three replicates each
Experimental: The manner in which they cause this effect has not been established. Their effectiveness for this purpose has been ascertained by the following procedure.
An enzyme was prepared by homogenizing one gram of slices from pig adipose tissue, each slice being approximately 0.3 mm thick, in one-milliliter portions of a liquid medium (Liquid A). The homogenate then was centrifuged (10,000 g×15 minutes), and the supernatant phase (the enzyme) was poured through cheesecloth to remove fat that has risen to the top of the centrifuge tubes.
Liquid A had the following composition (in water):
0.15 M potassium chloride, 1 mM ethylenediaminetetracetic acid, 10 mM Hepes (N-2-hydroxyethylpiperazine-N'-2-ethanesulfonic acid), 1 mM DTT (dithiothreitol), pH=7.0.
A solution of the test compound (Liquid B) was prepared: 10 milligrams of test compound plus 0.5 milliliter dimethylsulfoxide (DMSO) plus 1.83 milliliters of glass-distilled water.
A premix (Liquid C) was freshly prepared before each test, from the following components. […]
0.25 milliliter of enzyme then was added. […] Ten milliliters of a 2:1 (v/v) mixture of toluene and Triton X-100 containing 0.27% New England Nuclear Omnifluor was added, and the radioactivity was determined in a liquid scintillation counter. […]
The percent inhibition by the test compound compared to the controls […] was determined.

Percent Inhibition	Compound
95	Cl.Cn1c(=O)c2c(ncn2CCNCC(O)c2cc(C(C)(C)C)c(O)c(C(C)(C)C)c2)n(C)c1=O (centres unmarked) [7-(2-(2-(3,5-bis-(1,1-dimethylethyl)-4-hydroxyphenyl)-2-hydroxyethylamino)ethyl)-3,7-dihydro-1,3-dimethyl-1H-purine-2,6-dione, hydrochloride]
93	Cl.Cn1c(=O)c2c(ncn2CCCNCC(O)c2cc(C(C)(C)C)c(O)c(C(C)(C)C)c2)n(C)c1=O (centres unmarked) [7-(3-(2-(3,5-bis-(1,1-dimethylethyl)-4-hydroxyphenyl)-2-hydroxyethylamino)propyl)-3,7-dihydro-1,3-dimethyl-1H-purine-2,6-dione, hydrochloride]

Reference: US4263301A, “β-Phenyl-β-hydroxyethylaminoalkyltheophyllines as inhibitors of biosynthesis of triglycerides” (Shell Oil Company, priority 1980, dated 1981)
